The text below walks through data of patent publication US8158828B2, “Nuclear receptor binding agents” (priority 2005, dated 2012).

Entries after “also recorded” stand apart in the source; their conditions may differ.

The test system of one experiment is PC-3 cells. The experiment in a line: Androgen independent prostate cancer cell growth. Particulars: for inhibition at 10 µM: Homo sapiens, PC-3, 72 hrs; for PC-3 growth inhibition, qualitative grading: in vitro, data not shown. It counts as cell-based. How it is done:
PC-3 cells were plated in RPMI+10% csFBS at 6000 cells per well of a 96 well plate. Medium was changed to RPMI+1% csFBS without phenol red and then treated for 72 hrs with increasing concentrations of SERMs.
The prostate cancer cell line PC-3 was plated in RPMI+10% csFBS at 6000 cells per well of a 96 well plate. Medium was changed to RPMI+1% csFBS without phenol red and cells were treated for 72 hrs with increasing concentrations of SERMs.
PC-3 growth inhibition was determined qualitatively, in vitro, and represented as a grading system based on the ability of the SERMs to inhibit growth. The number −4 is for compounds that induced 100% growth inhibition at 1 uM, −3 for compounds that inhibit growth by about 75-90%, −2 for about 50-70% and −1 for inhibition less than 50% growth.

In the next experiment the test system is uterus. The experiment in a line: In vivo estrogenic activity, uterine weight. Set-up: species or system rat. Conditions: female rats; for estrogenic activity in terms of uterine weight: compound alone. The protocol:
Rats that were administered the vehicle alone served as controls.

The next experiment concerns the target T1, ER-α (Rattus norvegicus, UniProt P06211).
T1 sequence (P06211 1-600): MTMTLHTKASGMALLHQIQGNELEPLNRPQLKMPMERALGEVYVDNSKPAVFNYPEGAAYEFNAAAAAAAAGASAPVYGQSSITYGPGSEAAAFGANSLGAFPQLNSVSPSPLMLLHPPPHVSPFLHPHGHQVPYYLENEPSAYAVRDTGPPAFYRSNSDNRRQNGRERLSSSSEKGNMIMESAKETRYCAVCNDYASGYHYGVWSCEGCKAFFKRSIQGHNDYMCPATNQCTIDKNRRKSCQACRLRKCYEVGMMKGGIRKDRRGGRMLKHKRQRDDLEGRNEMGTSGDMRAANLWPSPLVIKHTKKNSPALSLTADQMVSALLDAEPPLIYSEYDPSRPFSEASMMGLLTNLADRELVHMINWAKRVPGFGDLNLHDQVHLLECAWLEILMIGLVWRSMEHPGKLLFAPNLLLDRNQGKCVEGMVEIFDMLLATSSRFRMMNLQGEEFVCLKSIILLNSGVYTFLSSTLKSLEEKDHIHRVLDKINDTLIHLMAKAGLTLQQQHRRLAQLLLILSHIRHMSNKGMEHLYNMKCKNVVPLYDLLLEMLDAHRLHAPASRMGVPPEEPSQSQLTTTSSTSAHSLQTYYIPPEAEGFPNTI
The experiment can be described thus: ER-α transactivation, ERE-LUC in COS or 293 cells. It counts as cell-based. Set-up: % estardiol activity, ER-α: dose or concentration left out as unconfirmed. The protocol:
FIG. 1: Effects of the indicated compounds on ER-α transactivation. COS or 293 cells plated in DME without phenol red+10% charcoal stripped fetal bovine serum (csFBS) at 90,000 cells per well of 24 well plates were transfected with 0.25 μg ERE-LUC, 0.02 μg CMV-LUC (Renilla) and 25 ng of ER-α by lipofectamine. Twenty four hours after transfection, the cells were treated as indicated in the figure, harvested 48 hrs after transfection and were assayed for firefly and renilla luciferase.
FIG. 5: Effect of the indicated compounds on ER-α transactivation. COS or 293 cells plated in DME without phenol red+10% csFBS at 90,000 cells per well of a 24 well plate were transfected with 0.25 μg ERE-LUC, 0.02 μg CMV-LUC (Renilla) and […] of ER-α by lipofectamine. Twenty four hours after transfection, the cells were treated as indicated in the figure, harvested 48 hrs after transfection and were assayed for firefly and renilla luciferase.
FIG. 9: Effect of the indicated compounds on ER-α transactivation. COS or 293 cells plated in DME without phenol red+10% csFBS per well of a 24 well plate were transfected with 0.25 μg ERE-LUC, 0.02 μg CMV-LUC (Renilla) and 25 ng of ER-α by lipofectamine. Twenty four hours after transfection, the cells were treated as indicated in the figure, harvested 48 hrs after transfection and were assayed for firefly and renilla luciferase.
Also 25 ng of ER-α (FIGS. 1, 5, and 9), 50 ng of ER-β (FIGS. 2, 6 and 10) or 12.5 ng of AR (FIG. 3) were introduced by lipofectamine. All the receptors were cloned from rat tissue into the PCR3.1 vector backbone. […] Cells were harvested 48 hrs after transfection, and assayed for firefly and Renilla luciferase activity.
Also 25 ng of ER-α), 50 ng of ER-β or 12.5 ng of AR were introduced by lipofectamine. All the receptors were cloned from rat tissue into the PCR3.1 vector backbone. […] Cells were harvested 48 hrs after transfection, and assayed for firefly and Renilla luciferase activity.

On to `Cl.Cl.O=C(c1ccc(OCCN2CCCCC2)cc1)N(c1ccc(F)cc1)c1ccc(OCCN2CCCCC2)cc1` [Compound 4r, N-(4-fluorophenyl)-N-[4-(2-piperidin-1-ylethoxy)-phenyl]-[4-(2-piperidin-1-yl-ethoxy)]-benzamide dihydrochloride], for which, in the experiment with PC-3 cells, the inhibition (as a rule, the share of the control response that was lost under treatment) at 10 µM amounted to 100% and the “PC-3 growth inhibition, qualitative grading” value (shortened to “PC-3 growth inhibition”) was −4 (The number −4 is for compounds that induced 100% growth inhibition at 1 uM).

As to `Cl.O=C(c1ccc(OCCN2CCCCC2)cc1)N(c1ccccc1)c1ccc(O)cc1` [Compound 4e, N-(4-hydroxyphenyl)-N-phenyl-[4-(2-piperidin-1-ylethoxy)]-benzamide hydrochloride], the “estrogenic activity in terms of uterine weight” value in the experiment on uterus was “exhibited no estrogenic, or anti-estrogenic activity in uterus”. Further, the “PC-3 growth inhibition” value with PC-3 cells is on record as −1 (−1 for inhibition less than 50% growth).

Consider `O=C(c1ccc(OCCN2CCCCC2)cc1)N(c1ccc(O)cc1)c1ccc(F)cc1` [Compound 4g, N-(4-fluorophenyl)-N-[4-hydroxyphenyl]-[4-(2-piperidin-1-ylethoxy)]-benzamide], for which the “estrogenic activity in terms of uterine weight” value in the experiment with uterus is “exhibited estrogenic activity, in terms of increased uterine weight; also recorded: exhibited estrogenic activity, in vivo”. Also, in the experiment on uterus (with ICI-182,780), the “uterine weight increase, with ICI-182,780” value was “ICI-182,780 reversed 4a and 4g effects on uterine weight increase”. For the same compound, the “uterine weight, coadministered with estrogen” value in the experiment with uterus (with estrogen) is “an increase in uterine weight was observed”.

Take `O=C(c1ccccc1)N(c1ccccc1)c1ccc(OCCN2CCCCC2)cc1` [Compound 4b, N-(phenyl)-N-[4-(2-piperidin-1-ylethoxy)-phenyl]-benzamide]: the “PC-3 growth inhibition” value in the experiment with PC-3 cells is given as −1 (−1 for inhibition less than 50% growth).

In the case of `Cl.Cl.O=C(c1ccc(OCCN2CCCCC2)cc1)N(c1ccccc1)c1ccc(OCCN2CCCCC2)cc1` [Compound 4u, N-[4-(2-piperidin-1-ylethoxy)-phenyl]-N-phenyl-[4-(2-piperidin-1-ylethoxy)]-benzamide dihydrochloride], in the experiment on PC-3 cells, the inhibition at 10 µM was determined as 100% and the “PC-3 growth inhibition” value is −3 (−3 for compounds that inhibit growth by about 75-90%). Moreover, the “% estardiol activity, ER-α” value at ER-α is listed as 12.8%.
